pIC50: −log10 of the molar value. The source made the active and inactive calls. The calls are words filed in the database; no cut-off is given here.
Legend:
[1] = target: Vascular endothelial growth factor receptor 2 (Homo sapiens, UniProt P35968); experiment: Inhibition of VEGFR2 phosphorylation in VEGF-induced HUVEC cells pretreated measured after overnight incubation by immunoblotting analysis; assay type: cell-based
HUVEC [2] = experiment: Antiproliferative activity against HUVEC cells incubated for 72 hrs under serum treatment by MTT assay; assay type: functional, cell-based; conditions: Homo sapiens
U-87 MG [3] = experiment: Antiproliferative activity against human U-87MG cells incubated for 72 hrs under serum treatment by MTT assay; assay type: functional, cell-based; conditions: U-87MG ATCC
HUVEC [4] = experiment: Antiproliferative activity against HUVEC cells incubated for 72 hrs under VEGF treatment by MTT assay; assay type: functional, cell-based; conditions: Homo sapiens
U-87 MG [5] = experiment: Antiproliferative activity against human U87MG cells incubated for 72 hrs under VEGF treatment by MTT assay; assay type: functional, cell-based; conditions: U-87MG ATCC
U-87 MG [6] = experiment: Antitumor activity against human U-87MG cells xenografted in mouse assessed as reduction in tumor size at 10 mg/kg, ip treated every other day for 20 days; assay type: functional, organism-based; conditions: U-87MG ATCC, time 20.0 day
U-87 MG [7] = experiment: Antitumor activity against human U-87MG cells xenografted in mouse assessed as reduction in tumor weight at 10 mg/kg, ip treated every other day for 20 days; assay type: functional, organism-based; conditions: U-87MG ATCC, time 20.0 day
Mus musculus = experiment: Toxicity in mouse assessed as change in body weight at 10 mg/kg, ip treated every other day for 20 days; assay type: organism-based; conditions: in vivo, 480 h, time 20 day
U-87 MG [8] = experiment: Antiangiogenic activity against human U-87MG cells xenografted in mouse assessed as reduction in vascular density at 10 mg/kg, ip treated every other day for 20 days by H& E staining analysis relative to control; assay type: functional, U-87MG ATCC; conditions: 480 h, time 20 day
U-87 MG [9] = experiment: Antiangiogenic activity against human U-87MG cells xenografted in mouse assessed as reduction in Bcl-xl expression at 10 mg/kg, ip treated every other day for 20 days by Western blotting analysis; assay type: functional, U-87MG ATCC; conditions: 480 h, time 20 day
U-87 MG [10] = experiment: Antiangiogenic activity against human U-87MG cells xenografted in mouse assessed as reduction in CD31 expression at 10 mg/kg, ip treated every other day for 20 days by Western blotting analysis; assay type: functional, U-87MG ATCC; conditions: 480 h, time 20 day
U-87 MG [11] = experiment: Antiangiogenic activity against human U-87MG cells xenografted in mouse assessed as reduction in pVEGFR2 expression at 10 mg/kg, ip treated every other day for 20 days by Western blotting analysis; assay type: functional, U-87MG ATCC; conditions: 480 h, time 20 day
U-87 MG [12] = experiment: Antiangiogenic activity against human U-87MG cells xenografted in mouse assessed as reduction in HIF1alpha expression at 10 mg/kg, ip treated every other day for 20 days by fluorescence microscopy; assay type: functional, organism-based; conditions: U-87MG ATCC, time 20.0 day

Vascular endothelial growth factor receptor 2, sequence (P35968 whole entry): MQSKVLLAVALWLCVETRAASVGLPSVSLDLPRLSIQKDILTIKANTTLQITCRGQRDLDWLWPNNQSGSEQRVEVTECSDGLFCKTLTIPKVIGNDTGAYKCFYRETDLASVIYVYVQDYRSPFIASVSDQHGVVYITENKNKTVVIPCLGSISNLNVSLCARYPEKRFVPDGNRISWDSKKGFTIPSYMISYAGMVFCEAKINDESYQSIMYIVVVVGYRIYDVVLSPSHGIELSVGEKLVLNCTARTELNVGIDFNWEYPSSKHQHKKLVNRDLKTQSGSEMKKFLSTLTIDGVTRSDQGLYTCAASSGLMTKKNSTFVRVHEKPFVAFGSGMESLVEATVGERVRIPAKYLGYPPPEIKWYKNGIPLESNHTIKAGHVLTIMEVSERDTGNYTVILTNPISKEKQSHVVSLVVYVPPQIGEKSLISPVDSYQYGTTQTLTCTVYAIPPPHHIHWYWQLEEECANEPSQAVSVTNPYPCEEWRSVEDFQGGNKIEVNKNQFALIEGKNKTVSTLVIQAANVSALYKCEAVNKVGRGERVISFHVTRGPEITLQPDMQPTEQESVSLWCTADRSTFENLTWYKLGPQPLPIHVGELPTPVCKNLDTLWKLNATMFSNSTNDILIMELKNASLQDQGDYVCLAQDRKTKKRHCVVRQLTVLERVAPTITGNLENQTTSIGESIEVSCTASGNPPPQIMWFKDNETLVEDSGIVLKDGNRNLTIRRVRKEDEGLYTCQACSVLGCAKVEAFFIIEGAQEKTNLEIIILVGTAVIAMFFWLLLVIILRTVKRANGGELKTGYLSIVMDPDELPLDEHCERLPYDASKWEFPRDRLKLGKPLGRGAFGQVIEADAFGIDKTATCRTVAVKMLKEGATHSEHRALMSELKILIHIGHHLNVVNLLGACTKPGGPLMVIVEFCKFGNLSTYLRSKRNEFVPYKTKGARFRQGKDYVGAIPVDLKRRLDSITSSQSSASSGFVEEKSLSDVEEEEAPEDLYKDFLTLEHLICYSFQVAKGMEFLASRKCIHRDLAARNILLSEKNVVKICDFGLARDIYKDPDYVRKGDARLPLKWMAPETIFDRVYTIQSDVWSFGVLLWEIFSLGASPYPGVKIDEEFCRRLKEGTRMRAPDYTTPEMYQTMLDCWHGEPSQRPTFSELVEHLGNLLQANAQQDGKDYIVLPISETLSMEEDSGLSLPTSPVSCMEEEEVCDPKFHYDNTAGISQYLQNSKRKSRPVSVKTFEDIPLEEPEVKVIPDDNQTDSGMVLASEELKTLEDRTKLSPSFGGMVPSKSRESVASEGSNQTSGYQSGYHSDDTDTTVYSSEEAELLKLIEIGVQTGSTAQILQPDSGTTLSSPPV

COc1ccc2[nH]c3c(c2c1)CN(C(=O)CN1CCOCC1)CCC3
pIC50 [1]: < 4.70

COc1ccc2[nH]c3c(c2c1)CN(C(=O)CC(C)C)CCC3
pIC50 [1]: < 4.70

COc1ccc2[nH]c3c(c2c1)CN(C(=O)Cc1ccccc1)CCC3
pIC50 [1]: < 4.70

COc1ccc2[nH]c3c(c2c1)CN(C(=O)Cc1ccncc1)CCC3
pIC50 [1]: < 4.70

COc1ccc2[nH]c3c(c2c1)CNCCC3
pIC50 [1]: < 4.70

COc1ccc2[nH]c3c(c2c1)CN(C(=O)Cc1ccccn1)CCC3
Activity (HUVEC [2]): inactive
Activity (U-87 MG [3]): inactive
Activity (HUVEC [4]): Active
Activity (U-87 MG [5]): Active
Activity (U-87 MG [6]): Active
Activity (U-87 MG [7]): Active
Activity (Mus musculus): Non-Toxic
inhibition in vivo at 10 mg/kg (U-87 MG [8]): 73%
inhibition in vivo at 10 mg/kg (U-87 MG [9]): 20%
inhibition in vivo at 10 mg/kg (U-87 MG [10]): 60%
inhibition in vivo at 10 mg/kg (U-87 MG [11]): 60%
Activity (U-87 MG [12]): Active
